Experimental findings from PubChem BioAssay (NCI) are described below.

Among the test systems are NCI-H522 lung; U251 CNS; K-562 leukemia; SF-268 CNS; A498 renal; HT29 colon; CAKI-1 renal; OVCAR-8 ovarian.
Holding throughout (test): NCI tumour cell line growth inhibition, 48 h

“And” between values parts separate entries of the source, which are not always exact repeats. Identical values can stand only once.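 Assay format: 96-well plates, 48-hour exposure. Here, GI50 denotes the concentration required for 50% inhibition of growth. TGI denotes the concentration required for complete inhibition of growth.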

For `C[C@@H](CO)OCOCc1ccccc1`, the TGI in the experiment with NCI-H522 lung, in the experiment on U251 CNS, in the experiment with K-562 leukemia, in the experiment with SF-268 CNS, with A498 renal and in the experiment on HT29 colon was above 100 µM each time. Further, in the experiment on CAKI-1 renal, the TGI is above 100 µM.
Turning to `Cc1oc2c(C)c(O)c3c(c2c1C1(C)OCCO1)C(=O)C=C(Cl)C3=O`, the TGI in the experiment on NCI-H522 lung, in the experiment with OVCAR-8 ovarian, in the experiment on U251 CNS, in the experiment on K-562 leukemia, with SF-268 CNS and in the experiment on A498 renal was above 100 µM in each case. Also, the TGI in the experiment with HT29 colon and in the experiment on CAKI-1 renal was above 100 µM each time.
In the case of `COc1cc2ccc3c4c(OC)cc(OC)c(OC)c4c(=O)n(C)c3c2cc1OC`, the GI50 with NCI-H522 lung is 0.745 µM; in the experiment on OVCAR-8 ovarian it was 0.451 µM; with U251 CNS, 0.299 µM; in the experiment on K-562 leukemia it was 0.303 µM; in the experiment with SF-268 CNS it was 1.13 µM; in the experiment with HT29 colon, 1.75 µM. Moreover, the GI50 in the experiment on CAKI-1 renal was 6.83 µM. The TGI with NCI-H522 lung was 10.9 µM and > 32.8 µM; in the experiment on U251 CNS, 3.71 µM and 10.6 µM; in the experiment with SF-268 CNS it was 10.7 µM and > 21.2 µM; in the experiment on A498 renal, 16.7 µM; in the experiment on HT29 colon, 4.77 µM; in the experiment with CAKI-1 renal, 16.7 µM and > 44.2 µM.
Consider `O=C(/C=C\c1cccc2ccccc12)c1cccs1`, for which the TGI in the experiment with NCI-H522 lung stood at 8.49 µM; in the experiment with OVCAR-8 ovarian, 24.9 µM; in the experiment on U251 CNS it was 16.5 µM; in the experiment on K-562 leukemia, 8.79 µM; in the experiment on SF-268 CNS it was 26.1 µM; with A498 renal, 35.6 µM. Moreover, the TGI was 17.4 µM with HT29 colon and 22.7 µM in the experiment on CAKI-1 renal.
As for `COC(=O)/C(C#N)=C1\CCC(O)N1C` (stereo unspecified), the TGI in the experiment with NCI-H522 lung, in the experiment with OVCAR-8 ovarian, in the experiment with U251 CNS, in the experiment on K-562 leukemia, with SF-268 CNS and with HT29 colon was above 100 µM in each case. In the experiment with CAKI-1 renal, this molecule showed a TGI above 100 µM.
For `Nc1ncnc(NC2C=C(CO)C(O)C2O)c1[N+](=O)[O-]` (stereo unspecified), the TGI with OVCAR-8 ovarian, with U251 CNS, with K-562 leukemia, in the experiment on SF-268 CNS, with A498 renal and in the experiment with HT29 colon was above 100 µM each time. Moreover, the TGI in the experiment with CAKI-1 renal was above 100 µM.
`CN(C)C(=O)/N=c1\ss/c(=N\C(=S)N(C)C)n1-c1ccccc1`: the TGI is 8.12 µM in the experiment on NCI-H522 lung; above 61.1 µM in the experiment with OVCAR-8 ovarian; above 100 µM with U251 CNS; above 56.1 µM with K-562 leukemia; above 100 µM in the experiment with SF-268 CNS; above 100 µM in the experiment on A498 renal. The same molecule returned a TGI with CAKI-1 renal above 100 µM. Further, the GI50 with SF-268 CNS is 0.389 µM; in the experiment with CAKI-1 renal, 2.76 µM.
As to `Cc1ccccc1NC(=O)C(=O)C(c1cnc2ccc([N+](=O)[O-])cc2n1)[N+](=O)[O-]` (stereo unspecified), the TGI in the experiment with NCI-H522 lung, in the experiment on OVCAR-8 ovarian, in the experiment on U251 CNS, in the experiment with K-562 leukemia, with SF-268 CNS and with A498 renal was above 100 µM throughout. Moreover, the TGI with HT29 colon and with CAKI-1 renal was above 100 µM throughout.
Turning to `N=C1N(c2ccccc2)C(=O)C23CCCC2C13N1CCOCC1` (stereo unspecified), the TGI with NCI-H522 lung, in the experiment with OVCAR-8 ovarian, in the experiment on U251 CNS, in the experiment with K-562 leukemia, in the experiment with SF-268 CNS and in the experiment with HT29 colon was above 100 µM each time. Also, the TGI in the experiment with CAKI-1 renal is above 100 µM.
As to `COC(=O)C(=O)C(C(=O)C(=O)Nc1ccc(Cl)cc1C)c1nc2ccc(C(=O)c3ccccc3)cc2[nH]c1=O` (stereo unspecified), the TGI in the experiment with NCI-H522 lung, with OVCAR-8 ovarian, in the experiment on U251 CNS, in the experiment on K-562 leukemia, in the experiment with SF-268 CNS and in the experiment with A498 renal was above 100 µM in each case. Also, the TGI in the experiment with HT29 colon and with CAKI-1 renal was above 100 µM each time.
Take `COc1cc(/C=C2\[C@H]3c4c(c(OC)c(C)c(OC)c4OC)C[C@@H](C(=O)N2Cc2ccccc2)N3C(=O)OC(C)C)c(OC)c(C)c1OC`: the TGI with NCI-H522 lung, with OVCAR-8 ovarian, with U251 CNS, with K-562 leukemia, with SF-268 CNS and with A498 renal was above 100 µM throughout. For the same molecule, in the experiment with HT29 colon, the TGI is above 100 µM.
Take `C=C[C@]1(C)CCC2=C(CCC3C2(C)CCC[C@]3(C)CO)C1` (stereo partly specified): the TGI was 52.5 µM with NCI-H522 lung; above 100 µM with OVCAR-8 ovarian; 63.8 µM with U251 CNS; above 100 µM with K-562 leukemia; above 100 µM in the experiment with SF-268 CNS; above 100 µM with A498 renal. Also, the TGI in the experiment on HT29 colon was 48 µM; in the experiment with CAKI-1 renal it was above 100 µM.
As for `COc1cc2nc(Sc3c([N+](=O)[O-])ncn3C)[nH]c2cc1OC`, the TGI with OVCAR-8 ovarian is 58 µM; in the experiment on U251 CNS, above 100 µM; in the experiment with SF-268 CNS it was 69.9 µM; in the experiment with A498 renal, above 100 µM; in the experiment with HT29 colon, above 100 µM; in the experiment on CAKI-1 renal, 37.2 µM.
As for `COC(=O)C1(C(=O)OC)CC2c3c(c4ccccc4n3C)CC(C1=O)N2Cc1ccccc1` (stereo unspecified), the TGI in the experiment with NCI-H522 lung, in the experiment with OVCAR-8 ovarian, with U251 CNS, with K-562 leukemia, in the experiment with SF-268 CNS and in the experiment on A498 renal was above 100 µM each time. Also, the TGI with HT29 colon and with CAKI-1 renal was above 100 µM in each case.
For `COc1ccc(C(c2ccc(C(C)C)cc(=O)c2O)c2ccc3cccnc3c2O)cc1` (stereo unspecified), the TGI in the experiment on NCI-H522 lung was 10.9 µM; in the experiment with OVCAR-8 ovarian, 12.7 µM; in the experiment with U251 CNS it was 3.5 µM; in the experiment on K-562 leukemia it was above 100 µM; in the experiment with SF-268 CNS it was 10.4 µM; with HT29 colon, 20.2 µM. This molecule returned a TGI in the experiment on CAKI-1 renal of 5.15 µM.
As for `COc1cc(-c2cc(=O)c3ccccc3o2)ccc1N`, the TGI in the experiment on NCI-H522 lung, in the experiment on OVCAR-8 ovarian, in the experiment with U251 CNS, with K-562 leukemia, with SF-268 CNS and in the experiment on A498 renal was above 100 µM in each case. In addition, the values for the TGI in the experiment with HT29 colon and in the experiment on CAKI-1 renal were above 100 µM and 77.5 µM, respectively.
